Entries after “also recorded” stand apart in the source; their conditions may differ. Read-outs that look alike come from different tables or passages of the source.
Assays:
D3R = D3R (Homo sapiens, UniProt P35462); test: BRET1-based GoA activation assay, D3R; format: cell-based; conditions: for Emax in the Go BRET assay, D3R / efficacy type at D3R (in words): HEK293T; for Emax in the Go BRET assay, D3R: dose-response 100 pM to 100 µM; for efficacy type at D3R (in words): GoA BRET
D2R = D2R (Homo sapiens, UniProt P14416); test: BRET1-based GoA activation assay, D2R; format: cell-based
[1] = HEK293T, dose-response 100 pM to 100 µM

Sequence of D3R (P35462 whole entry): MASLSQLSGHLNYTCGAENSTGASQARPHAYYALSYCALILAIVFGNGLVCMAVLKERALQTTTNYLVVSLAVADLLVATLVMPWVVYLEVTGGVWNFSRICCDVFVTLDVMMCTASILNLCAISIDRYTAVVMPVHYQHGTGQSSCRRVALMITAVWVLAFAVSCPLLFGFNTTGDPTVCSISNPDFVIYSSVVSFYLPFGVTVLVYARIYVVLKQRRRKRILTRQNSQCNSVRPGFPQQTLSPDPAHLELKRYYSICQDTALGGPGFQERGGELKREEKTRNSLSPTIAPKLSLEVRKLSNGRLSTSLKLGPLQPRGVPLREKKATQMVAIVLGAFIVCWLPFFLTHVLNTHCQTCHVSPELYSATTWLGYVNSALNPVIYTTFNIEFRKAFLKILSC
Sequence of D2R (P14416 1-414 isoform P14416-2): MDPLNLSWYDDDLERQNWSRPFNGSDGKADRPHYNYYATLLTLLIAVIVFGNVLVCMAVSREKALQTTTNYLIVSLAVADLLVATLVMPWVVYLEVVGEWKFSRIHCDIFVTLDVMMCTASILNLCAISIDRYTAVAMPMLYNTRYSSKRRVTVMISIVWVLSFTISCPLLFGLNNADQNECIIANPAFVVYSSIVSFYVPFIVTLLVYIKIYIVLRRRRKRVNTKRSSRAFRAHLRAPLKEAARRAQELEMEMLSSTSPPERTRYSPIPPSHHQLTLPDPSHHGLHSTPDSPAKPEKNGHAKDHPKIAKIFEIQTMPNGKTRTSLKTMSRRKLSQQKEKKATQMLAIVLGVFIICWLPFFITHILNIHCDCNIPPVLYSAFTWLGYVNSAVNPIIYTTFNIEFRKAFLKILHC

| SMILES | Emax in the Go BRET assay, D3R (D3R) | efficacy type at D3R (in words) (D3R) | further results |
| --- | --- | --- | --- |
| CCC(=O)NCCCCN1CCN(c2cccc(Cl)c2Cl)CC1 [Compound 16] | 22.32 % of the Emax of dopamine | – | – |
| CCCN1CCN(c2cccc(Cl)c2Cl)CC1 [Compound 13, 1-(2,3-Dichlorophenyl)-4-propylpiperazine] | 17.53 % of the Emax of dopamine | – | – |
| CCC(=O)NCCCCN1CCN(c2ccccc2OC)CC1 [Compound 17] | 7.37 % of the Emax of dopamine | – | – |
| COc1ccccc1N1CCNCC1 [Compound 9, 2-OCH3-4-phenylpiperazine] | 6.27 % of the Emax of dopamine | only minimal efficacy | Emax in the Go BRET assay, D2R (D2R): 14.02 % of the Emax of dopamine; efficacy type at D2R (in words) (D2R): only minimal efficacy |
| NCCc1ccc(O)c(O)c1 [dopamine, reference compound] | – | – | efficacy type at D2R (in words) (D2R): full agonists |
| COc1ccccc1N1CCN(C)CC1 [Compound 11, 1-(2-Methoxyphenyl)-4-methylpiperazine] | 7.11 % of the Emax of dopamine | – | – |
| O=C(NCCCCN1CCN(c2cccc(Cl)c2Cl)CC1)c1cc2ccccc2[nH]1 [Compound 4, N-(4-(4-(2,3-dichlorophenyl)piperazin-1-yl)butyl)-1H-indole-2-carboxamide] | 16.00 % of the Emax of dopamine | weak partial agonism | efficacy type at D2R (in words) (D2R; GoA BRET, HEK293T): weak partial agonism |
| CCCCN1CCN(c2ccccc2OC)CC1 [Compound 15, 1-Butyl-4-(2-methoxyphenyl)piperazine] | 9.40 % of the Emax of dopamine | – | – |
| CN1CCN(c2cccc(Cl)c2Cl)CC1 [Compound 10, 1-(2,3-Dichlorophenyl)-4-methylpiperazine] | 37.53 % of the Emax of dopamine | – | – |
| CCN1CCCC1CNC(=O)c1cc(S(N)(=O)=O)ccc1OC (stereo not shown) [Compound 7, sulpiride, reference compound] | −6.83 % of the Emax of dopamine | inverse agonist | efficacy type at D2R (in words) (D2R; GoA BRET, HEK293T): inverse agonist; Emax in the Go BRET assay, D2R (D2R; [1]): −6.26 % of the Emax of dopamine; shift of dopamine dose-response curve at D2R (D2R; sulpiride 100 nM): dramatically right-shifted the potency of dopamine; shift of dopamine dose-response curve at D3R (D3R; sulpiride 100 nM): dramatically right-shifted the potency of dopamine |
| OCCN1CCN(c2cccc(Cl)c2Cl)CC1 [Compound 12, 2-(4-(2,3-Dichlorophenyl)piperazin-1-yl)ethanol] | 21.08 % of the Emax of dopamine | – | – |
| Clc1cccc(N2CCNCC2)c1Cl [Compound 8, 2,3-diCl-4-phenylpiperazine] | 57.27 % of the Emax of dopamine | substantial partial agonism | efficacy type at D2R (in words) (D2R; GoA BRET, HEK293T): substantial partial agonism; Emax in the Go BRET assay, D2R (D2R; [1]): 40.03 % of the Emax of dopamine |
| CCc1cc(Cl)c(OC)c(C(=O)NC[C@@H]2CCCN2CC)c1O [Compound 3, eticlopride, reference compound] | – | inverse agonist | – |
| COc1ccccc1N1CCN(CCCCNC(=O)c2cc3ccccc3[nH]2)CC1 [Compound 5] | 8.38 % of the Emax of dopamine | weak partial agonism | efficacy type at D2R (in words) (D2R; GoA BRET, HEK293T): weak partial agonism; Emax in the Go BRET assay, D2R (D2R; [1]): 13.65 % of the Emax of dopamine |
| O=C(NCC[C@@H](O)CN1CCN(c2cccc(Cl)c2Cl)CC1)c1cc2ccccc2[nH]1 [Compound 2] | – | weak partial agonism | – |
| CCCCNC(=O)c1cc2ccccc2[nH]1 [Compound 18, N-Butyl-1H-indole-2-carboxamide] | −0.65 % of the Emax of dopamine | no activity; also recorded: failed to activate | – |
| CCCCN1CCN(c2cccc(Cl)c2Cl)CC1 [Compound 14, 1-Butyl-4-(2,3-dichlorophenyl)piperazine] | 14.13 % of the Emax of dopamine | – | – |
